In this data set the test system is children and adolescents with autistic spectrum disorders. Kind of data set: Open-label trial of Memantine in children and adolescents with autistic spectrum disorders. In kind it is in vivo, human. How it is done:
In support of the present invention, an experiment was conducted to evaluate the use of Memantine in children and adolescents with autistic spectrum disorders (hereinafter referred to as “ASD”). […] A range of 2.5-10 mg per day of Memantine was applied as an open-label trial in children with ASD. Clinical observations of global function in language and/or behavior pattern were assessed. Thirty patients, including 24 males and 6 females with an average age of 8.92 years and meeting DSM-IV criteria for ASD, were treated with Memantine for greater than 8 weeks. The patients were evaluated using a global clinical improvement scale rating for improvement in language and behaviors based on parental observation and clinical appearance. Improvements were rated as follows: moderate to significant, mild to moderate, or no improvement. The therapy ranged from between 8 to 40 weeks, with an average duration of therapy of 18 weeks and an average daily dosage of 8.1 mg. After the thirty patients were treated for more than 2 months with Memantine, parents reported improvements in 26 of the 30 patients in one or more categories: attention, motor planning, language function (both receptively and expressively), and self-stimulatory behaviors. Moderate to significant improvement occurred in 16 of the 26, with milder improvement in 10 of the 26.

[1] abbreviates: open-label, 2.5-10 mg per day, treated more than 2 months, global clinical improvement scale.

Consider 1 compound from US20090048348A1, “METHOD FOR TREATING AUTISM” (Forest Laboratories Holdings Ltd., priority 2004, published 2009).

SMILES strings stand for the structures. Where a name gives a salt, the structure may show the parent alone.

For the compound `CC12CC3CC(C)(C1)CC(N)(C3)C2` [Memantine, 1-amino-3,5-dimethyladamantane hydrochloride], the “frontal executive functions (attention, speech expression, perseveration)” value (open-label trial in ASD, overall clinical observation) is recorded as “appears to clearly improve frontal executive functions”. Moreover, under “open-label, 2.5-10 mg per day, 30 patients treated more than 2 months”, the side effects entry is “No side effects were reported”. Further, the “patients with parent-reported improvements in one or more categories (attention, motor planning, language function, self-stimulatory behaviors)” value (open-label, 2.5-10 mg per day, average 8.1 mg daily, treated more than 2 months (8 to 40 weeks), global clinical improvement scale) was 26 of the 30 patients. Under setting [1], the “patients with milder improvement” value is recorded as 10 of the 26 and the “patients with moderate to significant improvement” value is 16 of the 26.
